Assay results from patent publication US20090105277A1, “AGENT FOR PREVENTING AND/OR TREATING MOVEMENT DISORDER” (KYOWA HAKKO KOGYO CO., LTD., priority 2005, published 2009).
Values joined by “and” are separate entries in the source; they are usually repeats but may differ in a detail not shown here. Equal entries are not always repeated.

Columns and labels:
[1] = system: 6-OHDA treated rats (Parkinson's disease model rat); assay: L-DOPA induced contralateral rotational behavior (antiparkinsonian effect) in the Parkinson's disease model rats; format: in vivo; settings: for number of rotations: oral, total count in 3 hr; for antiparkinsonian activity compared with single administration of L-DOPA 20 mg/kg: L-DOPA 10 mg/kg and test compound combined; for effect on L-DOPA induced rotational behavior, namely antiparkinsonian activity: combined with L-DOPA 10 mg/kg, vs L-DOPA 10 mg/kg + 0.5% MC solution
[2] = system: involuntary movement (e.g., dyskinesia) model rats; assay: Abnormal involuntary movements (AIMs) in involuntary movement (dyskinesia) model rats given repeated L-DOPA; format: in vivo, rat; settings: for AIMs score axial, limb, orolingual, day 1-3 / AIMs score locomotive, day 1-3 / AIMs score axial, limb, orolingual, day 8-10 / AIMs score locomotive, day 8-10: oral, multiple doses; for AIMs score axial, limb, orolingual, post value / AIMs score locomotive, post value: after 3-day drug withdrawal, L-DOPA (20 mg/kg) administered; for onset of dyskinesia: combined administration with L-DOPA 10 mg/kg, compared to single administration of L-DOPA 20 mg/kg
Excerpt: It is known that abnormal involuntary movements (AIMS) are developed by repeated administration of L-DOPA to the Parkinson's disease model rat prepared by the method described in Test Example 1, and the treated rat is used as a model of an involuntary movement such as dyskinesia, or the like. AIMs are classified into 4 kinds: (1) axial AIMs: deflection or torsion of head, neck, and trunk towards the contralateral side of lesioned side of the brain, (2) limb AIMs: movements of mainly forelimb on the contralateral side of the lesioned side of the brain (bending or extension in the perpendicular direction or movements in the horizontal•back and forth directions, opening and closure of the digits etc.); (3) orolingual AIMs: jaw movements, facial distortion, tongue protrusion (accompanying behavior of biting hair, skin of forelimb on the contralateral side of the lesioned side); and (4) locomotive AIMs: contralateral rotational behavior. Of these, locomotive AIMs are induced by dopamine agonists such as bromocriptine causing less dyskinesia, and are not suppressed by a drug having an […] activity such as amantadine. From these, locomotive AIMs have been reported to reflect normal movements improved by an antiparkinsonian effect (Neurobiology of Disease, 2002, vol. 10, p. 165-86; European Journal of Neuroscience, 2002, vol. 15, p. 120-132). […] The frequency of the above-mentioned four kinds of AIMs were scored in 0 to 4 points (0 point: no symptom, 1 point: appearance in less than 50% of observation time, 2 points: appearance in 50% or more of observation time, 3 points: symptom is maintained but prevented by strong sensory stimuli, 4 points: symptom is maintained and is not prevented by strong sensory stimuli). As for axial AIMs and limb AIMs, the amplitude thereof was scored in 1 to 4 points (axial AIMs; 1 point: deflection of head and neck is less than 30 degrees, 2 points: deflection of head and neck is not less than 30 degrees and less than 60 degrees, 3 points: deflection and torsion of head, neck and upper trunk is not less than 60 degrees and less than 90 degrees, 4 points: deflection and torsion of head, neck and trunk is 90 degrees or more and balance is lost, limb AIMs; 1 point: tiny oscillatory movements of limb and distal forelimb, 2 points: low amplitude but visible translocation of both distal and proximal limbs, 3 points: translocation of the whole limb with visible contraction of shoulder muscles, 4 points: strong movements of limb and shoulder at maximul amplitude). SD male rats (6-week-old, CHARLES RIVER LABORATORIES JAPAN, INC.) were used for the test. Parkinson's disease model rats were prepared according to the method described in Test Example 1. After a postoperative period of 6 days or longer, L-DOPA (20 mg/kg/day) was repetitively and orally administered once or twice per day to give a model rat of involuntary movement such as dyskinesia, or the like. […] The rats almost free of AIMs after the lapse of 1 week or longer from repetitive administration of L-DOPA were removed. As the group constitution, an L-DOPA 20 mg/kg and 0.5% MC solution administration group (single administration group) and an L-DOPA 10 mg/kg and test compound administration group (combined administration group) were used. The test compound was used in the same dose as in Test Example 1, whereby the conditions under which both the single administration group and the combined administration group show the same level of antiparkinsonian activity were set. After grouping, multiple doses of L-DOPA 20 mg/kg and 0.5% MC solution, and L-DOPA 10 mg/kg and test compound were orally administered, respectively. […] After the completion of administration, a 3-day drug withdrawal period was taken, and then L-DOPA (20 mg/kg) was administered. The AIMs score at this time was taken as the post value. The AIMs score of each group was expressed as mean±standard deviation of total AIMs score observed in individual rats for one day. […]

[3] = L-DOPA (20 mg/kg) + 0.5% MC solution (single administration)
[4] = group L-DOPA (20 mg/kg) + 0.5% MC solution
[5] = L-DOPA (10 mg/kg) + compound 1 (30 mg/kg)
[6] = group L-DOPA (10 mg/kg) + compound 1 (30 mg/kg)
[7] = L-DOPA (10 mg/kg) + compound 2 (1 mg/kg)
[8] = group L-DOPA (10 mg/kg) + compound 2 (1 mg/kg)

N[C@@H](Cc1ccc(O)c(O)c1)C(=O)O [L-DOPA, reference compound]
number of rotations ([1]; L-DOPA (10 mg/kg) + 0.5% MC solution (single administration)): 534.3 ± 123.4 and 367.3 ± 140.6 | AIMs score axial, limb, orolingual, day 1-3 [2, 3]: 272.9 ± 25.9 and 271.9 ± 12.6 | AIMs score locomotive, day 1-3 [2, 3]: 16.0 ± 2.1 and 12.4 ± 2.6 | AIMs score axial, limb, orolingual, day 8-10 [2, 3]: 291.7 ± 16.7 and 232.4 ± 26.2 | AIMs score locomotive, day 8-10 [2, 3]: 16.1 ± 2.1 and 13.6 ± 1.7 | AIMs score axial, limb, orolingual, post value [2, 4]: 129.3 ± 14.3 and 139.1 ± 12.6 | AIMs score locomotive, post value [2, 4]: 16.3 ± 2.8 and 15.0 ± 1.4

CC(C)(O)CCN1CCN(c2cc3nc(-c4ccco4)nn3c(N)n2)CC1 [compound 1]
antiparkinsonian activity compared with single administration of L-DOPA 20 mg/kg [1]: same level | number of rotations ([1]; L-DOPA (10 mg/kg) + compound 1 (30 mg/kg), mean±standard deviation): 1732.2 ± 305.2 | effect on L-DOPA induced rotational behavior, namely antiparkinsonian activity [1]: significantly enhanced | AIMs score axial, limb, orolingual, day 1-3 [2, 5]: 78.3 ± 17.2 | AIMs score locomotive, day 1-3 [2, 5]: 16.3 ± 3.5 | AIMs score axial, limb, orolingual, day 8-10 [2, 5]: 105.0 ± 24.1 | AIMs score locomotive, day 8-10 [2, 5]: 16.4 ± 3.9 | onset of dyskinesia [2]: significant suppression | AIMs score axial, limb, orolingual, post value [2, 6]: 106.9 ± 14.0 | AIMs score locomotive, post value [2, 6]: 17.1 ± 3.1

COCCOc1ccc(N2CCN(CCn3ncc4c3nc(N)n3nc(-c5ccco5)nc43)CC2)cc1 [compound 2]
antiparkinsonian activity compared with single administration of L-DOPA 20 mg/kg [1]: same level | number of rotations ([1]; L-DOPA (10 mg/kg) + compound 2 (1 mg/kg), mean±standard deviation): 1543.5 ± 263.2 | effect on L-DOPA induced rotational behavior, namely antiparkinsonian activity [1]: significantly enhanced | AIMs score axial, limb, orolingual, day 1-3 [2, 7]: 146.4 ± 13.3 | AIMs score locomotive, day 1-3 [2, 7]: 14.8 ± 1.7 | AIMs score axial, limb, orolingual, day 8-10 [2, 7]: 117.5 ± 15.5 | AIMs score locomotive, day 8-10 [2, 7]: 14.4 ± 1.7 | onset of dyskinesia [2]: significant suppression | AIMs score axial, limb, orolingual, post value [2, 8]: 159.8 ± 24.7 | AIMs score locomotive, post value [2, 8]: 13.1 ± 1.7
